Data published in US10167262B2, “Herbicidal substituted 3-arylpyrazoles” (FMC CORPORATION, priority 2014, dated 2019).

Columns and labels:
Format in all cases: in vivo
[1] = tested on: barnyardgrass (Echinochloa crus-galli); experiment: Test A pre-/postemergence greenhouse herbicide test, visual injury rating 0-100
How it was run: (§1)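 Formulated in non-phytotoxic solvent with surfactant, compounds were applied pre- and postemergence simultaneously. Soil: loam–sand blend. Visual injury, 0 = no effect to 100 = complete control, ~10 days.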

[2] = tested on: corn (Zea mays); experiment: as above
How it was run: as §1

[3] = tested on: giant foxtail (Setaria faberii); experiment: as above
How it was run: as §1

[4] = tested on: large (Lg) crabgrass (Digitaria sanguinalis); experiment: as above
How it was run: as §1

[5] = tested on: morningglory (Ipomoea spp.); experiment: as above
How it was run: as §1

[6] = tested on: pigweed (Amaranthus retroflexus); experiment: as above
How it was run: as §1

[7] = tested on: velvetleaf (Abutilon theophrasti); experiment: as above
How it was run: as §1

[8] = tested on: wheat (Triticum aestivum); experiment: as above
How it was run: as §1

[9] = tested on: Italian ryegrass (Lolium multiflorum); experiment: Test C pre-/postemergence greenhouse test, plant response rating 0-100
Description: (§2) Seeds of plant species selected from blackgrass (Alopecurus myosuroides), Italian ryegrass (Lolium multiflorum), winter wheat (Triticum aestivum), galium (catchweed bedstraw, Galium aparine), corn (Zea mays), large (Lg) crabgrass (Digitaria sanguinalis), giant foxtail (Setaria faberii), johnsongrass (Sorghum halepense), lambsquarters (Chenopodium album), morningglory (Ipomoea coccinea), yellow nutsedge (Cyperus esculentus), pigweed (Amaranthus retroflexus), ragweed (common ragweed, Ambrosia elatior), soybean (Glycine max), barnyardgrass (Echinochloa crus-galli), oilseed rape (Brassica napus), waterhemp (common waterhemp, Amaranthus rudis), and velvetleaf (Abutilon theophrasti) were planted into a blend of loam soil and sand and treated preemergence with test chemicals formulated in a non-phytotoxic solvent mixture which included a surfactant.
(§3) At the same time, plants selected from these crop and weed species and also winter barley (Hordeum vulgare), bermudagrass (Cynodon dactylon), downy bromegrass (Bromus tectorum), canarygrass (Phalaris minor), cocklebur (common cocklebur, Xanthium strumarium), woolly cupgrass (Eriochloa villosa), deadnettle (henbit deadnettle, Lamium amplexicaule), green foxtail (Setaria viridis), goosegrass (Eleusine indica), surinam grass (Brachiaria decumbens), windgrass (Apera spica-venti), chickweed (common chickweed, Stellaria media), kochia (Kochia scoparia), and wild oat (Avena fatua), were planted in pots containing Redi-Earth® planting medium (Scotts Company, 14111 Scottslawn Road, Marysville, Ohio 43041) comprising spaghnum peat moss, vermiculite, wetting agent and starter nutrients and treated with postemergence applications of test chemicals formulated in the same manner. Plants ranged in height from 2 to 18 cm (1- to 4-leaf stage) for postemergence treatments. Treated plants and controls were maintained in a greenhouse for 13 to 15 days, after which time all species were compared to controls and visually evaluated. Plant response ratings, summarized in Table C, are based on a scale of 0 to 100 where 0 is no effect and 100 is complete control. A dash (-) response means no test result.

[10] = tested on: galium (catchweed bedstraw, Galium aparine); experiment: as above
Description: as §2, §3

[11] = tested on: large (Lg) crabgrass (Digitaria sanguinalis); experiment: as above
Description: as §2, §3

[12] = tested on: ragweed (common ragweed, Ambrosia elatior); experiment: as above
Description: as §2, §3

[13] = tested on: yellow nutsedge (Cyperus esculentus); experiment: as above
Description: as §2, §3

[14] = Postemergence, 250 g ai/ha, scale 0 to 100
[15] = Postemergence, 500 g ai/ha, scale 0 to 100
[16] = Preemergence, 0 to 100 scale (0 no effect, 100 complete control), rate 500 g ai/ha per head r3, sub-head of this section not shown

`O=C(c1ccccc1)c1cn(S(=O)(=O)CC(F)(F)F)nc1-c1cc(Cl)cc(Cl)c1` [Compound 3] was tested, and the “Plant response rating (0 to 100 scale), Barnyardgrass” value ([1]; Postemergence, 125 g ai/ha) was 0, the “Plant response rating (0 to 100 scale), Barnyardgrass” value ([1]; Postemergence, 500 g ai/ha) was 0 and the “Barnyardgrass plant response rating (0 = no effect, 100 = complete control)” value ([1]; Preemergence, 125 g ai/ha) was 0. The “Plant response rating (0 to 100 scale), Barnyardgrass” value ([1]; Preemergence, 500 g ai/ha) was 0, the “Plant response rating (0 to 100 scale), Corn” value ([2]; Postemergence, 125 g ai/ha) was 0 and the “Plant response rating (0 to 100 scale), Corn” value ([2]; Postemergence, 500 g ai/ha) was 0. For the same compound, the “Corn plant response rating (0 = no effect, 100 = complete control)” value ([2]; Preemergence, 125 g ai/ha) was 0, the “Plant response rating (0 to 100 scale), Corn” value ([2]; Preemergence, 500 g ai/ha) was 0 and the “Plant response rating (0 to 100 scale), Foxtail, Giant” value ([3]; Postemergence, 125 g ai/ha) was 0. The “Plant response rating (0 to 100 scale), Foxtail, Giant” value ([3]; Postemergence, 500 g ai/ha) was 0, the “Foxtail, Giant plant response rating (0 = no effect, 100 = complete control)” value ([3]; Preemergence, 125 g ai/ha) was 0 and the “Plant response rating (0 to 100 scale), Foxtail, Giant” value ([3]; Preemergence, 500 g ai/ha) was 0. For the same compound, the “Plant response rating (0 to 100 scale), Crabgrass, Large” value ([4]; Postemergence, 125 g ai/ha) was 0, the “Plant response rating (0 to 100 scale), Crabgrass, Large” value ([4]; Postemergence, 500 g ai/ha) was 0 and the “Crabgrass, Large plant response rating (0 = no effect, 100 = complete control)” value ([4]; Preemergence, 125 g ai/ha) was 0. The “Plant response rating (0 to 100 scale), Crabgrass, Large” value ([4]; Preemergence, 500 g ai/ha) was 0, the “Plant response rating (0 to 100 scale), Morningglory” value ([5]; Postemergence, 125 g ai/ha) was 0 and the “Plant response rating (0 to 100 scale), Morningglory” value ([5]; Postemergence, 500 g ai/ha) was 0. The “Morningglory plant response rating (0 = no effect, 100 = complete control)” value ([5]; Preemergence, 125 g ai/ha) was 0, the “Plant response rating (0 to 100 scale), Morningglory” value ([5]; Preemergence, 500 g ai/ha) was 0 and the “Plant response rating (0 to 100 scale), Pigweed” value ([6]; Postemergence, 125 g ai/ha) was 80. For the same compound, the “Plant response rating (0 to 100 scale), Pigweed” value ([6]; Postemergence, 500 g ai/ha) was 100, the “Pigweed plant response rating (0 = no effect, 100 = complete control)” value ([6]; Preemergence, 125 g ai/ha) was 60 and the “Plant response rating (0 to 100 scale), Pigweed” value ([6]; Preemergence, 500 g ai/ha) was 80. The “Plant response rating (0 to 100 scale), Velvetleaf” value ([7]; Postemergence, 125 g ai/ha) was 90, the “Plant response rating (0 to 100 scale), Velvetleaf” value ([7]; Postemergence, 500 g ai/ha) was 100 and the “Velvetleaf plant response rating (0 = no effect, 100 = complete control)” value ([7]; Preemergence, 125 g ai/ha) was 0. For the same compound, the “Plant response rating (0 to 100 scale), Velvetleaf” value ([7]; Preemergence, 500 g ai/ha) was 50, the “Plant response rating (0 to 100 scale), Wheat” value ([8]; Postemergence, 125 g ai/ha) was 0 and the “Plant response rating (0 to 100 scale), Wheat” value ([8]; Postemergence, 500 g ai/ha) was 0. For the same compound, the “Wheat plant response rating (0 = no effect, 100 = complete control)” value ([8]; Preemergence, 125 g ai/ha) was 0, the “Plant response rating (0 to 100 scale), Wheat” value ([8]; Preemergence, 500 g ai/ha) was 0 and the “Plant response rating (0 to 100), Ryegrass, Italian” value ([9]; Postemergence, 62 g ai/ha) was 0. The “Plant response rating (0 to 100), Ryegrass, Italian” value ([9]; Postemergence, 125 g ai/ha) was 0, the “Plant response rating, Ryegrass, Italian” value [9, 14] was 0 and the “Plant response rating, Ryegrass, Italian” value [9, 15] was 0. The “Plant response rating, Ryegrass, Italian” value ([9]; Preemergence, 62 g ai/ha) was 0, the “Plant response rating, Ryegrass, Italian” value ([9]; Preemergence, 125 g ai/ha) was 0 and the “Plant response rating, Ryegrass, Italian” value ([9]; Preemergence, 250 g ai/ha) was 0. The “Plant response rating, Ryegrass, Italian” value ([9]; Preemergence, 500 g ai/ha) was 0, the “Plant response rating, Ryegrass, Italian” value [9, 16] was 0 and the “Plant response rating (0 to 100), Galium” value ([10]; Postemergence, 62 g ai/ha) was 0. The “Plant response rating (0 to 100), Galium” value ([10]; Postemergence, 125 g ai/ha) was 0, the “Plant response rating, Galium” value [10, 14] was 20 and the “Plant response rating, Galium” value [10, 15] was 30. The “Plant response rating, Galium” value ([10]; Preemergence, 62 g ai/ha) was 0, the “Plant response rating, Galium” value ([10]; Preemergence, 125 g ai/ha) was 0 and the “Plant response rating, Galium” value ([10]; Preemergence, 250 g ai/ha) was 0. The “Plant response rating, Galium” value ([10]; Preemergence, 500 g ai/ha) was 0, the “Plant response rating (0 to 100), Crabgrass, Large” value ([11]; Postemergence, 62 g ai/ha) was 0 and the “Plant response rating (0 to 100), Crabgrass, Large” value ([11]; Postemergence, 125 g ai/ha) was 5. The “Plant response rating, Crabgrass, Large” value [11, 14] was 5, the “Plant response rating, Crabgrass, Large” value [11, 15] was 5 and the “Plant response rating, Crabgrass, Large” value ([11]; Preemergence, 62 g ai/ha) was 0. The “Plant response rating, Crabgrass, Large” value ([11]; Preemergence, 125 g ai/ha) was 0, the “Plant response rating, Crabgrass, Large” value ([11]; Preemergence, 250 g ai/ha) was 0 and the “Plant response rating, Crabgrass, Large” value ([11]; Preemergence, 500 g ai/ha) was 0. For the same compound, the “Plant response rating (0 to 100), Ragweed” value ([12]; Postemergence, 62 g ai/ha) was 20, the “Plant response rating (0 to 100), Ragweed” value ([12]; Postemergence, 125 g ai/ha) was 25 and the “Plant response rating, Ragweed” value [12, 14] was 65. For the same compound, the “Plant response rating, Ragweed” value [12, 15] was 65, the “Plant response rating, Ragweed” value ([12]; Preemergence, 62 g ai/ha) was 0 and the “Plant response rating, Ragweed” value ([12]; Preemergence, 125 g ai/ha) was 0. For the same compound, the “Plant response rating, Ragweed” value ([12]; Preemergence, 250 g ai/ha) was 70, the “Plant response rating, Ragweed” value ([12]; Preemergence, 500 g ai/ha) was 95 and the “Plant response rating, Ragweed” value [12, 16] was 35. For the same compound, the “Plant response rating (0 to 100), Nutsedge, Yellow” value ([13]; Postemergence, 62 g ai/ha) was 0, the “Plant response rating (0 to 100), Nutsedge, Yellow” value ([13]; Postemergence, 125 g ai/ha) was 0 and the “Plant response rating, Nutsedge, Yellow” value [13, 14] was 0. For the same compound, the “Plant response rating, Nutsedge, Yellow” value [13, 15] was 0, the “Plant response rating, Nutsedge, Yellow” value ([13]; Preemergence, 62 g ai/ha) was 0 and the “Plant response rating, Nutsedge, Yellow” value ([13]; Preemergence, 125 g ai/ha) was 0. The “Plant response rating, Nutsedge, Yellow” value ([13]; Preemergence, 250 g ai/ha) was 0 and the “Plant response rating, Nutsedge, Yellow” value ([13]; Preemergence, 500 g ai/ha) was 0.
